The test system of assay [1] is maternal sera (antibodies). The experiment in a line: ELISA peptide-binding of maternal sera (Example 6). Details: species or system human. The settings on record: for Number of Non-Transmitters which bound to peptide / Percent of Non-Transmitters which bound to peptide: N = 12; for Number of Transmitters which bound to peptide / Percent of Transmitters which bound to peptide: N = 4. A digest of the protocol:
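HIV-1 envelope peptides averaging 16 amino acids, covering external and transmembrane glycoprotein, were probed by ELISA. Third-trimester maternal sera, classed as transmitter or non-transmitter by child diagnosis, were each run on at least 40 peptides. Values give percent of sera binding a peptide.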
(In general: ELISA stands for enzyme-linked immunosorbent assay.)

Assay [2] has as its system maternal HIV+ sera (antibodies). The assay can be described thus: RIA / ELISA binding of maternal HIV+ sera to gp120 and gp41 peptides (Example 3). Set-up: species or system human. A digest of the protocol:
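Maternal sera, diluted 1:50 and 1:500, were bound overnight at 4°C to peptides immobilized at 10 μg/ml (pH 9.6 carbonate) and blocked with 1% BSA. Read-out was ¹²⁵I-labelled anti-human IgG counts or HRP-TMB OD450. Signal with peptide minus without was expressed relative to seronegative serum.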

[3] abbreviates: Serum No. 1, Non-Transmission Group.
[4] abbreviates: Serum No. 2, Non-Transmission Group.
The mark [5] stands for this setting: Serum No. 3, Non-Transmission Group.
[6] abbreviates: Serum No. 4, Transmission Group.
[7] abbreviates: Serum No. 5, Transmission Group.
Where [8] appears, read: Serum No. 6, Non-Transmission Group.
The mark [9] stands for this setting: Serum No. 7, Non-Transmission Group.
The mark [10] stands for this setting: Serum No. 8, Non-Transmission Group.
[11] abbreviates: Serum No. 9, Non-Transmission Group.
Setting [12] is: Serum No. 10, Transmission Group.
Where [13] appears, read: Serum No. 11, Non-Transmission Group.
[14] abbreviates: Serum No. 12, Non-Transmission Group.
The mark [15] stands for this setting: Serum No. 13, Transmission Group.
The mark [16] stands for this setting: Serum No. 14, Transmission Group.
Where [17] appears, read: Serum No. 15, Transmission Group.
Setting [18] is: Serum No. 16, Non-Transmission Group.
Setting [19] is: Serum No. 17, Non-Transmission Group.
The mark [20] stands for this setting: Serum No. 18, Non-Transmission Group.
The mark [21] stands for this setting: Serum No. 19, Transmission Group.
The mark [22] stands for this setting: Serum No. 20, Non-Transmission Group.

Regarding NYTSLIHSLIEESQNQ [Peptide 41], in assay [1], the “Number of Non-Transmitters which bound to peptide” value worked out at 0. In addition, the “Percent of Non-Transmitters which bound to peptide” value in assay [1] was determined as 0%. Further, the “Number of Transmitters which bound to peptide” value in assay [1] turned out to be 0. Moreover, the “Percent of Transmitters which bound to peptide” value in assay [1] is on record as 0%. For the same sequence, the “Binding of maternal HIV+ serum to peptide (sera/NHS ratio)” value (“Binding … (sera/NHS ratio)” below) in assay [2] (setting [3]) is “- (specific OD450 or cpm of sera sample binding to peptide divided by the specific OD450 or cpm of NHS sample binding to peptide, which value is less than 2)”; in assay [2] (setting [4]), “- (specific OD450 or cpm of sera sample binding to peptide divided by the specific OD450 or cpm of NHS sample binding to peptide, which value is less than 2)”; in assay [2] (setting [5]), “- (specific OD450 or cpm of sera sample binding to peptide divided by the specific OD450 or cpm of NHS sample binding to peptide, which value is less than 2)”; in assay [2] (setting [6]) it was “- (specific OD450 or cpm of sera sample binding to peptide divided by the specific OD450 or cpm of NHS sample binding to peptide, which value is less than 2)”; in assay [2] (setting [7]), “- (specific OD450 or cpm of sera sample binding to peptide divided by the specific OD450 or cpm of NHS sample binding to peptide, which value is less than 2)”; in assay [2] (setting [8]), “- (specific OD450 or cpm of sera sample binding to peptide divided by the specific OD450 or cpm of NHS sample binding to peptide, which value is less than 2)”. Further, the “Binding … (sera/NHS ratio)” value in assay [2] (setting [9]) is “- (specific OD450 or cpm of sera sample binding to peptide divided by the specific OD450 or cpm of NHS sample binding to peptide, which value is less than 2)”; in assay [2] (setting [10]), “- (specific OD450 or cpm of sera sample binding to peptide divided by the specific OD450 or cpm of NHS sample binding to peptide, which value is less than 2)”; in assay [2] (setting [11]), “- (specific OD450 or cpm of sera sample binding to peptide divided by the specific OD450 or cpm of NHS sample binding to peptide, which value is less than 2)”; in assay [2] (setting [12]) it was “- (specific OD450 or cpm of sera sample binding to peptide divided by the specific OD450 or cpm of NHS sample binding to peptide, which value is less than 2)”; in assay [2] (setting [13]), “- (specific OD450 or cpm of sera sample binding to peptide divided by the specific OD450 or cpm of NHS sample binding to peptide, which value is less than 2)”; in assay [2] (setting [14]), “- (specific OD450 or cpm of sera sample binding to peptide divided by the specific OD450 or cpm of NHS sample binding to peptide, which value is less than 2)”. Besides, the “Binding … (sera/NHS ratio)” value was “- (specific OD450 or cpm of sera sample binding to peptide divided by the specific OD450 or cpm of NHS sample binding to peptide, which value is less than 2)” in assay [2] (setting [15]); “- (specific OD450 or cpm of sera sample binding to peptide divided by the specific OD450 or cpm of NHS sample binding to peptide, which value is less than 2)” in assay [2] (setting [16]); “- (specific OD450 or cpm of sera sample binding to peptide divided by the specific OD450 or cpm of NHS sample binding to peptide, which value is less than 2)” in assay [2] (setting [17]); “- (specific OD450 or cpm of sera sample binding to peptide divided by the specific OD450 or cpm of NHS sample binding to peptide, which value is less than 2)” in assay [2] (setting [18]); “- (specific OD450 or cpm of sera sample binding to peptide divided by the specific OD450 or cpm of NHS sample binding to peptide, which value is less than 2)” in assay [2] (setting [19]); “- (specific OD450 or cpm of sera sample binding to peptide divided by the specific OD450 or cpm of NHS sample binding to peptide, which value is less than 2)” in assay [2] (setting [20]). The “Binding … (sera/NHS ratio)” value in assay [2] (setting [21]) was “- (specific OD450 or cpm of sera sample binding to peptide divided by the specific OD450 or cpm of NHS sample binding to peptide, which value is less than 2)”; in assay [2] (setting [22]) it was “- (specific OD450 or cpm of sera sample binding to peptide divided by the specific OD450 or cpm of NHS sample binding to peptide, which value is less than 2)”.
QNNLLRAIEAQQHLLQLTVWGI [Peptide 35]: the “Number of Non-Transmitters which bound to peptide” value in assay [1] amounted to 0. The “Percent of Non-Transmitters which bound to peptide” value in assay [1] is 0%. For the same sequence, in assay [1], the “Number of Transmitters which bound to peptide” value was 0. Also, the “Percent of Transmitters which bound to peptide” value in assay [1] was found to be 0%. The “Binding … (sera/NHS ratio)” value in assay [2] (setting [3]) was “- (specific OD450 or cpm of sera sample binding to peptide divided by the specific OD450 or cpm of NHS sample binding to peptide, which value is less than 2)”; in assay [2] (setting [4]), “- (specific OD450 or cpm of sera sample binding to peptide divided by the specific OD450 or cpm of NHS sample binding to peptide, which value is less than 2)”; in assay [2] (setting [5]), “+ (which value is between 2 to 3)”; in assay [2] (setting [6]), “- (specific OD450 or cpm of sera sample binding to peptide divided by the specific OD450 or cpm of NHS sample binding to peptide, which value is less than 2)”; in assay [2] (setting [7]), “- (specific OD450 or cpm of sera sample binding to peptide divided by the specific OD450 or cpm of NHS sample binding to peptide, which value is less than 2)”; in assay [2] (setting [8]) it was “- (specific OD450 or cpm of sera sample binding to peptide divided by the specific OD450 or cpm of NHS sample binding to peptide, which value is less than 2)”. For the same sequence, the “Binding … (sera/NHS ratio)” value in assay [2] (setting [9]) is given as “+ (which value is between 2 to 3)”; in assay [2] (setting [10]), “- (specific OD450 or cpm of sera sample binding to peptide divided by the specific OD450 or cpm of NHS sample binding to peptide, which value is less than 2)”; in assay [2] (setting [11]) it was “- (specific OD450 or cpm of sera sample binding to peptide divided by the specific OD450 or cpm of NHS sample binding to peptide, which value is less than 2)”; in assay [2] (setting [12]) it was “- (specific OD450 or cpm of sera sample binding to peptide divided by the specific OD450 or cpm of NHS sample binding to peptide, which value is less than 2)”; in assay [2] (setting [13]), “- (specific OD450 or cpm of sera sample binding to peptide divided by the specific OD450 or cpm of NHS sample binding to peptide, which value is less than 2)”; in assay [2] (setting [14]) it was “- (specific OD450 or cpm of sera sample binding to peptide divided by the specific OD450 or cpm of NHS sample binding to peptide, which value is less than 2)”. Besides, the “Binding … (sera/NHS ratio)” value was “- (specific OD450 or cpm of sera sample binding to peptide divided by the specific OD450 or cpm of NHS sample binding to peptide, which value is less than 2)” in assay [2] (setting [15]); “- (specific OD450 or cpm of sera sample binding to peptide divided by the specific OD450 or cpm of NHS sample binding to peptide, which value is less than 2)” in assay [2] (setting [16]); “- (specific OD450 or cpm of sera sample binding to peptide divided by the specific OD450 or cpm of NHS sample binding to peptide, which value is less than 2)” in assay [2] (setting [17]); “- (specific OD450 or cpm of sera sample binding to peptide divided by the specific OD450 or cpm of NHS sample binding to peptide, which value is less than 2)” in assay [2] (setting [18]); “- (specific OD450 or cpm of sera sample binding to peptide divided by the specific OD450 or cpm of NHS sample binding to peptide, which value is less than 2)” in assay [2] (setting [19]); “- (specific OD450 or cpm of sera sample binding to peptide divided by the specific OD450 or cpm of NHS sample binding to peptide, which value is less than 2)” in assay [2] (setting [20]). Further, the “Binding … (sera/NHS ratio)” value was “- (specific OD450 or cpm of sera sample binding to peptide divided by the specific OD450 or cpm of NHS sample binding to peptide, which value is less than 2)” in assay [2] (setting [21]) and “- (specific OD450 or cpm of sera sample binding to peptide divided by the specific OD450 or cpm of NHS sample binding to peptide, which value is less than 2)” in assay [2] (setting [22]).
